Measured values as given in article PMC9709406 (Frontiers in Pharmacology, 2022).
“And” between values parts separate entries of the source, which are not always exact repeats. Equal values may be shown once.

Columns and labels:
KYSE70 cells = assay: MTT assay, KYSE70; format: cell-based, human; conditions: for IC50: Homo sapiens, KYSE-70, MTT, 48 h, KYSE70, n = 5
Text: (§1) The human cancer cells (H1650, H1975, KYSE70, KYSE410 and KYSE450) were purchased from the Type Culture Collection of the Chinese Academy of Sciences (Shanghai, China). The human immortalized normal esophageal epithelial cell line SHEE was donated by Dr. Enmin Li from the Laboratory of Tumor Pathology (Shantou University Medical College, Shantou, Guangdong, China). Drug-resistant cells (H1650TR, H1975OR, KYSE70TR, KYSE410TR and KYSE450TR) were induced by China-US (Henan) Hormel Cancer Institute. The cellswere cultured in RPMI-1640 complete growth medium containing 100 U/mL penicillin-streptomycin and 10% FBS. Based on the above medium formula, 100 nm/L paclitaxel was added in taxol-resistant cells, 100 nm/L gefitinib was added in gefitinib-resistant cells. The cells were incubated at 37 °C in an atmosphere containing 5% of CO2. The compounds were dissolved in DMSO to make a 50 mM stock solution and were diluted to the concentration of working solutions with complete growth medium before administration.
(§2) Cells were seeded in 96-well plates with 2,200–2,500 cells/well in100 μL. One day after seeding, test compounds with the concentration between 0 and 50 μM were added with 0.1% DMSO as control. Five multiple wells for each concentration. After 48 h, MTT was added and incubated in the plate for 1–4 h in the incubator. The absorbance at 490 nm was measured using a microplate reader (Thermo).

H1650 cells = assay: MTT assay for cell proliferation and cytotoxicity, H1650; format: cell-based; conditions: Homo sapiens, NCI-H1650, 48 h, H1650, n = 5
Text: as §1, §2

KYSE450 cells = assay: MTT assay, KYSE450; format: cell-based, human; conditions: for IC50: Homo sapiens, KYSE-450, MTT, 48 h, KYSE450, n = 5, read-out: IC50 48 h KYSE450; for absorbance 490 nm, single well / mean absorbance 490 nm (row G) / mean absorbance 490 nm minus background (row H): KYSE450
Text: as §1, §2

KYSE410 cells = assay: MTT assay, KYSE410; format: cell-based, human; conditions: for IC50: Homo sapiens, KYSE-410, MTT, 48 h, KYSE410, n = 5, read-out: IC50 48 h KYSE410
Text: as §1, §2

SHEE cells = assay: MTT assay, normal esophageal epithelial cell line SHEE; format: cell-based; conditions: Homo sapiens, 48 h, n = 5
Text: as §1, §2

H1975 cells = assay: MTT assay for cell proliferation and cytotoxicity, H1975; format: cell-based, human; conditions: Homo sapiens, NCI-H1975, 48 h, MTT, 48 h, H1975, n = 5; read-out: IC50 48 h H1975
Text: as §1
as §2, with “After 48 h, MTT was added and incubated in the plate for 1–4 h in the incubator.” left out

[1] = concentration 12.5 (unit not given)
[2] = concentration 25 (unit not given)
[3] = concentration 50 (unit not given)
[4] = concentration 100 (unit not given)

Work on `Fc1cccc(-n2cc(-c3cccc(Nc4ncnc5cc6c(cc45)OCCOCCOCCO6)c3)nn2)c1` [compound 3a] yielded an IC50 (KYSE70 cells) of 10.2 ± 0.88 µM, an IC50 (H1650 cells) of 15.6 ± 1.02 µM and a melting point of 123 to 126 °C. The IC50 (KYSE450 cells) was 7.24 ± 0.65 µM, the IC50 (KYSE410 cells) was 48.6 ± 2.16 µM and the IC50 (SHEE cells) was 12.1 ± 0.97 µM. It also gave an IC50 (H1975 cells) of 9.87 ± 0.88 µM.

With `Fc1ccc(-n2cc(-c3cccc(Nc4ncnc5cc6c(cc45)OCCOCCOCCO6)c3)nn2)cc1` [compound 3c] the IC50 (KYSE70 cells) was 5.84 ± 0.36 µM, the IC50 (H1650 cells) was 9.4 ± 0.73 µM and the melting point was 129 to 132 °C. For the same compound, the IC50 (KYSE450 cells) was 13.8 ± 1.13 µM, the IC50 (KYSE410 cells) was over 50 µM and the IC50 (SHEE cells) was 6.23 ± 0.37 µM. It also gave an IC50 (H1975 cells) of over 50 µM.

With `c1ccc(-n2cc(-c3cccc(Nc4ncnc5cc6c(cc45)OCCOCCOCCO6)c3)nn2)cc1` [compound 3f] the IC50 (KYSE70 cells) was 25 ± 1.53 µM, the IC50 (H1650 cells) was 12.3 ± 0.91 µM and the melting point was 148 to 150 °C. It also gave an IC50 (KYSE450 cells) of 45 ± 2.53 µM, an IC50 (KYSE410 cells) of over 50 µM and an IC50 (SHEE cells) of over 50 µM. For the same compound, the IC50 (H1975 cells) was over 50 µM.

With `Clc1cccc(-n2cc(-c3cccc(Nc4ncnc5cc6c(cc45)OCCOCCOCCO6)c3)nn2)c1` [compound 3g] the IC50 (KYSE70 cells) was 6.13 ± 0.31 µM, the IC50 (H1650 cells) was 8.72 ± 0.73 µM and the IC50 (KYSE450 cells) was 4.51 ± 0.29 µM. The IC50 (KYSE410 cells) was 10.9 ± 0.99 µM, the IC50 (SHEE cells) was 8.01 ± 0.77 µM and the IC50 (H1975 cells) was 4.75 ± 0.33 µM.

`Ic1ccccc1-n1cc(-c2cccc(Nc3ncnc4cc5c(cc34)OCCOCCOCCO5)c2)nn1` [compound 3h] showed an IC50 (KYSE70 cells) of 18.4 ± 1.05 µM, an IC50 (H1650 cells) of 30.6 ± 1.99 µM and a melting point of 137 to 140 °C. The IC50 (KYSE450 cells) was 16.7 ± 1.31 µM, the IC50 (KYSE410 cells) was over 50 µM and the IC50 (SHEE cells) was 22.6 ± 1.19 µM. For the same compound, the IC50 (H1975 cells) was 12.1 ± 0.92 µM.

For `COc1cccc(-n2cc(-c3cccc(Nc4ncnc5cc6c(cc45)OCCOCCOCCO6)c3)nn2)c1` [compound 3i], the IC50 (KYSE70 cells) was 7.02 ± 0.64 µM, the “blank-corrected absorbance 490 nm relative to control (fraction)” value (KYSE70 cells; KYSE70, concentration 12.5) was 0.1099 and the “inhibition (1 minus fraction of control)” value (KYSE70 cells; KYSE70, concentration 12.5) was 0.8901. The “blank-corrected absorbance 490 nm relative to control (fraction)” value (KYSE70 cells; KYSE70, concentration 25) was 0.08489, the “inhibition (1 minus fraction of control)” value (KYSE70 cells; KYSE70, concentration 25) was 0.9151 and the “blank-corrected absorbance 490 nm relative to control (fraction)” value (KYSE70 cells; KYSE70, concentration 50) was 0.007475. The “inhibition (1 minus fraction of control)” value (KYSE70 cells; KYSE70, concentration 50) was 0.9925, the “blank-corrected absorbance 490 nm relative to control (fraction)” value (KYSE70 cells; KYSE70, concentration 100) was -0.01388 and the “inhibition (1 minus fraction of control)” value (KYSE70 cells; KYSE70, concentration 100) was 1.014. For the same compound, the IC50 (H1650 cells) was 6.25 ± 0.54 µM, the melting point was 122 to 125 °C and the IC50 (KYSE450 cells) was 10 ± 0.93 µM. For the same compound, the “absorbance 490 nm, single well” value (KYSE450 cells; [1]) was 0.3641 and 0.3196 and 0.3651, the “mean absorbance 490 nm (row G)” value (KYSE450 cells; [1]) was 0.3496 and the “mean absorbance 490 nm minus background (row H)” value (KYSE450 cells; [1]) was 0.2948. The “absorbance 490 nm, single well” value (KYSE450 cells; [2]) was 0.1604 and 0.1809 and 0.1731, the “mean absorbance 490 nm (row G)” value (KYSE450 cells; [2]) was 0.1715 and the “mean absorbance 490 nm minus background (row H)” value (KYSE450 cells; [2]) was 0.1167. The “absorbance 490 nm, single well” value (KYSE450 cells; [3]) was 0.1052 and 0.1046 and 0.0923 and 0.1026, the “mean absorbance 490 nm (row G)” value (KYSE450 cells; [3]) was 0.1012 and the “mean absorbance 490 nm minus background (row H)” value (KYSE450 cells; [3]) was 0.04637. The “absorbance 490 nm, single well” value (KYSE450 cells; [4]) was 0.0702 and 0.0745 and 0.0767 and 0.0714, the “mean absorbance 490 nm (row G)” value (KYSE450 cells; [4]) was 0.0732 and the “mean absorbance 490 nm minus background (row H)” value (KYSE450 cells; [4]) was 0.0184. The IC50 (KYSE410 cells) was over 50 µM, the “blank-corrected absorbance 490 nm relative to control (fraction)” value (KYSE410 cells; KYSE410, concentration 12.5) was 0.4787 and the “blank-corrected absorbance 490 nm relative to control (fraction)” value (KYSE410 cells; KYSE410, concentration 25) was 0.6596. For the same compound, the “blank-corrected absorbance 490 nm relative to control (fraction)” value (KYSE410 cells; KYSE410, concentration 50) was 1.468, the “blank-corrected absorbance 490 nm relative to control (fraction)” value (KYSE410 cells; KYSE410, concentration 100) was 0.817 and the IC50 (SHEE cells) was 28.1 ± 1.38 µM. The IC50 (H1975 cells) was 19.7 ± 1.07 µM.
